Data published in patent US20040185499A1, “Method of epitope scanning using fluorescence polarization” (priority 2003, published 2004).
Where no end group is shown, it is not given here. The star is where a group is joined. 6FAM = O=C1OC2(c3ccc(O)cc3Oc3cc(O)ccc32)c2cc(C(=O)*)ccc21

System: antibodies to MPB70 in M. bovis positive bovine serum
Type: binding
Conditions: pH 7.5

## AASNNPELTTLTAAL (6FAM-AASNNPELTTLTAAL; listed as Mycobacterium bovis) [Peptide 19]
  increase in fluorescence polarization with M. bovis positive bovine serum sample: substantial increase in fluorescence polarization

## ASNNPELTTLTAALS (6FAM-ASNNPELTTLTAALS; listed as Mycobacterium bovis) [Peptide 20]
  increase in fluorescence polarization with M. bovis positive bovine serum sample: substantial increase in fluorescence polarization

## AVAASNNPELTTLTA (6FAM-AVAASNNPELTTLTA; listed as Mycobacterium bovis) [Peptide 17]
  increase in fluorescence polarization with M. bovis positive bovine serum sample: substantial increase in fluorescence polarization

## NNPELTTLTAALSGQ (6FAM-NNPELTTLTAALSGQ; listed as Mycobacterium bovis) [Peptide 22]
  increase in fluorescence polarization with M. bovis positive bovine serum sample: substantial increase in fluorescence polarization

## SNNPELTTLTAALSG (6FAM-SNNPELTTLTAALSG; listed as Mycobacterium bovis) [Peptide 21]
  increase in fluorescence polarization with M. bovis positive bovine serum sample: substantial increase in fluorescence polarization

## VAASNNPELTTLTAA (6FAM-VAASNNPELTTLTAA; listed as Mycobacterium bovis) [Peptide 18]
  increase in fluorescence polarization with M. bovis positive bovine serum sample: substantial increase in fluorescence polarization

## VAVAASNNPELTTLT (6FAM-VAVAASNNPELTTLT; listed as Mycobacterium bovis) [Peptide 16]
  increase in fluorescence polarization with M. bovis positive bovine serum sample: substantial increase in fluorescence polarization
